Inhibition data for 51 compounds are collected here from ChEMBL document CHEMBL3727366, “Heterocyclic compounds for the treatment of stress-related conditions” (2013).

Calls of active or inactive are those of the source. How the calls were made is not given here.

Assay [1] relates to Rattus norvegicus. The assay can be described thus: Inhibition of restraint stress-induced defecation in Wistar rat at 5 mL/kg, po dosed 1 or 2 hrs before restraint stress. It is filed as functional, organism-based.
Assay [2] relates to Rattus norvegicus. The assay can be described thus: Inhibition of tail-pinch stress-induced feeding behavior in Wistar rat at 5 mL/kg, po dosed 1 or 2 hrs before tail-pinch stimulus. Type of assay: functional, organism-based.

With `COn1c(N[C@@H](C)c2ccc(C(F)(F)F)cc2)nc2c(c1=O)CN(C(=O)c1cc3cc(Cl)ccc3o1)CC2`, the inhibition result in the assay on Rattus norvegicus [1] and in the assay with Rattus norvegicus [2] was “Active” each time.

`CCOc1ccc(C(=O)N2CCc3nc(N[C@@H](C)c4ccc(C(F)(F)F)cc4)n(OC)c(=O)c3C2)cc1`: the inhibition result in the assay with Rattus norvegicus [1] and in the assay on Rattus norvegicus [2] was “Active” each time.

With `COn1c(NC(c2ccc(Cl)cc2)C(C)C)nc2c(c1=O)CN(C(=O)c1ccc(Cl)cc1)CC2` (configuration not stated), the inhibition result in the assay with Rattus norvegicus [1] and in the assay with Rattus norvegicus [2] was “Active” in each case.

For `COn1c(N[C@@H](C)c2ccc(Cl)cc2)nc2c(c1=O)CN(C(=O)c1cc3cccnc3s1)CC2`, the inhibition result in the assay on Rattus norvegicus [1] and with Rattus norvegicus [2] was “Active” each time.

In the case of `C[C@H](Nc1nc2c(c(=O)n1N(C)C)CN(C(=O)c1c(F)cc(F)cc1F)CC2)c1ccc(C(F)(F)F)cc1`, the inhibition result in the assay on Rattus norvegicus [1] and with Rattus norvegicus [2] was “Active” each time.

Turning to `COn1c(N[C@@H](C)c2ccc(C(F)(F)F)cc2)nc2c(c1=O)CN(C(=O)c1cnc3ccccc3c1)CC2`, the inhibition result in the assay on Rattus norvegicus [1] and in the assay on Rattus norvegicus [2] was “Active” throughout.

For the compound `C#CCCn1c(N[C@@H](C)c2ccc(C(F)(F)F)cc2)nc2c(c1=O)CN(C(=O)c1nc3ccccc3[nH]1)CC2`, the inhibition entry in the assay on Rattus norvegicus [1] and in the assay with Rattus norvegicus [2] was “Active” in each case.

Take `CCOc1ccc(CNc2nc3c(c(=O)n2OC)CN(C(=O)c2ccc(C#N)cc2F)CC3)cc1`: the inhibition result in the assay on Rattus norvegicus [1] and with Rattus norvegicus [2] was “Active” in each case.

Consider `COn1c(N[C@@H](C)c2ccc(C(F)(F)F)cc2)nc2c(c1=O)CN(C(=O)c1ccc3c(c1)CCC(=O)N3C)CC2`, for which the inhibition entry in the assay on Rattus norvegicus [1] and in the assay with Rattus norvegicus [2] was “Active” in each case.

Turning to `C=Cc1ccc(C(=O)N2CCc3nc(N[C@@H](C)c4ccc(C(F)(F)F)cc4)n(OC)c(=O)c3C2)cc1`, the inhibition result with Rattus norvegicus [1] and in the assay on Rattus norvegicus [2] was “Active” each time.

As to `COn1c(N[C@@H](C)c2ccc(C(F)(F)F)cc2)nc2c(c1=O)CN(C(=O)c1ccc(C#N)cc1)CC2`, the inhibition result in the assay on Rattus norvegicus [1] and in the assay on Rattus norvegicus [2] was “Active” in each case.

As for `C#CCn1c(N[C@@H](C)c2ccc(Cl)cc2)nc2c(c1=O)CN(C(=O)c1ccc(Cl)cc1)CC2`, the inhibition result in the assay on Rattus norvegicus [1] and in the assay with Rattus norvegicus [2] was “Active” each time.

Regarding `C#CCCn1c(N[C@@H](C)c2ccc(C(F)(F)F)cc2)nc2c(c1=O)CN(C(=O)c1ccc(-c3cnco3)cc1)CC2`, the inhibition entry in the assay on Rattus norvegicus [1] and in the assay with Rattus norvegicus [2] was “Active” throughout.

Take `C#CCCn1c(N[C@@H](C)c2ccc(C(F)(F)F)cc2)nc2c(c1=O)CN(C(=O)c1ccc(C#N)cc1F)CC2`: the inhibition result in the assay on Rattus norvegicus [1] and in the assay on Rattus norvegicus [2] was “Active” each time.

Turning to `COn1c(NC(CCC(F)(F)F)c2ccc(Cl)cc2)nc2c(c1=O)CN(C(=O)c1ccc(Cl)cc1)CC2` (configuration not stated), the inhibition result with Rattus norvegicus [1] and in the assay with Rattus norvegicus [2] was “Active” in each case.

`CC#CCn1c(N[C@@H](C)c2ccc(C(F)(F)F)cc2)nc2c(c1=O)CN(C(=O)c1ccc3c(c1)CCC(=O)N3)CC2`: the inhibition entry with Rattus norvegicus [1] and in the assay with Rattus norvegicus [2] was “Active” each time.

Take `C#CCCn1c(N[C@@H](C)c2ccc(C(F)(F)F)cc2)nc2c(c1=O)CN(C(=O)c1ccc(-n3ccnc3)cc1)CC2`: the inhibition entry in the assay on Rattus norvegicus [1] and with Rattus norvegicus [2] was “Active” each time.

For the compound `COn1c(N[C@@H](C)c2ccc(C(F)(F)F)cc2)nc2c(c1=O)CN(C(=O)c1ccc(Cl)cc1)CC2`, the inhibition result in the assay on Rattus norvegicus [1] and in the assay on Rattus norvegicus [2] was “Active” throughout.

In the case of `COn1c(N[C@@H](C)c2ccc(C(F)(F)F)cc2)nc2c(c1=O)CN(C(=O)c1ccc(Cl)c(C)c1)CC2`, the inhibition entry with Rattus norvegicus [1] and with Rattus norvegicus [2] was “Active” throughout.

As to `C#CCn1c(N[C@@H](C)c2ccc(C(F)(F)F)cc2)nc2c(c1=O)CN(C(=O)c1ccc(Cl)cc1)CC2`, the inhibition entry with Rattus norvegicus [1] and in the assay with Rattus norvegicus [2] was “Active” in each case.

With `CC#CCn1c(N[C@@H](C)c2ccc(C(F)(F)F)cc2)nc2c(c1=O)CN(C(=O)c1ccc3cccnc3c1)CC2`, the inhibition entry in the assay on Rattus norvegicus [1] and in the assay on Rattus norvegicus [2] was “Active” throughout.

With `CC#CCn1c(N[C@@H](C)c2ccc(C(F)(F)F)cc2)nc2c(c1=O)CN(C(=O)c1ccc3c(c1)OCO3)CC2`, the inhibition result in the assay with Rattus norvegicus [1] and with Rattus norvegicus [2] was “Active” throughout.

For the compound `C[C@H](Nc1nc2c(c(=O)n1N1CCOCC1)CN(C(=O)c1ccc(C#N)cc1)CC2)c1ccc(C(F)(F)F)cc1`, the inhibition entry with Rattus norvegicus [1] and in the assay with Rattus norvegicus [2] was “Active” in each case.

In the case of `CC#CCn1c(N[C@@H](C)c2ccc(C(F)(F)F)cc2)nc2c(c1=O)CN(C(=O)c1ccc(C)c(C)c1)CC2`, the inhibition result with Rattus norvegicus [1] and in the assay on Rattus norvegicus [2] was “Active” throughout.

On to `COc1cc(Cl)ccc1C(=O)N1CCc2nc(N[C@@H](C)c3ccc(C(F)(F)F)cc3)n(OC)c(=O)c2C1`, for which the inhibition entry in the assay with Rattus norvegicus [1] and in the assay on Rattus norvegicus [2] was “Active” in each case.

In the case of `CC#CCn1c(N[C@@H](C)c2ccc(C(F)(F)F)cc2)nc2c(c1=O)CN(C(=O)c1ccc(C#N)cc1F)CC2`, the inhibition result in the assay on Rattus norvegicus [1] and in the assay on Rattus norvegicus [2] was “Active” in each case.

As to `CC#CCn1c(N[C@@H](C)c2ccc(C(F)(F)F)cc2)nc2c(c1=O)CN(C(=O)c1ccc(Cl)cc1)CC2`, the inhibition result with Rattus norvegicus [1] and in the assay on Rattus norvegicus [2] was “Active” in each case.

For the compound `COn1c(N[C@@H](C)c2ccc(C(F)(F)F)cc2)nc2c(c1=O)CN(C(=O)c1ccc(OC(F)(F)F)cc1)CC2`, the inhibition result in the assay on Rattus norvegicus [1] and with Rattus norvegicus [2] was “Active” in each case.

For `C[C@H](Nc1nc2c(c(=O)n1N(C)C)CN(C(=O)COc1ccc(Cl)cc1)CC2)c1ccc(Cl)cc1`, the inhibition result in the assay on Rattus norvegicus [1] and in the assay on Rattus norvegicus [2] was “Active” in each case.

Take `C#CCn1c(N[C@@H](C)c2ccc(C(F)(F)F)cc2)nc2c(c1=O)CN(C(=O)c1ccc(C#N)cc1F)CC2`: the inhibition entry in the assay with Rattus norvegicus [1] and with Rattus norvegicus [2] was “Active” in each case.

Consider `CC#CCn1c(N[C@@H](C)c2ccc(C(F)(F)F)cc2)nc2c(c1=O)CN(C(=O)c1ccc3ccccc3n1)CC2`, for which the inhibition result in the assay on Rattus norvegicus [1] and with Rattus norvegicus [2] was “Active” throughout.

Consider `CC#CCn1c(N[C@@H](C)c2ccc(C(F)(F)F)cc2)nc2c(c1=O)CN(C(=O)c1ccc(-c3cnco3)cc1)CC2`, for which the inhibition entry with Rattus norvegicus [1] and in the assay on Rattus norvegicus [2] was “Active” in each case.

In the case of `COn1c(NCc2ccc(C(F)(F)F)cc2)nc2c(c1=O)CN(C(=O)c1ccc(Cl)cc1)CC2`, the inhibition entry in the assay with Rattus norvegicus [1] and in the assay with Rattus norvegicus [2] was “Active” throughout.

On to `CC#CCn1c(N[C@@H](C)c2ccc(C(F)(F)F)cc2)nc2c(c1=O)CN(C(=O)c1ccc(-n3ccnc3)cc1)CC2`, for which the inhibition result with Rattus norvegicus [1] and in the assay with Rattus norvegicus [2] was “Active” throughout.

Consider `COn1c(NCc2ccc(Cl)cc2)nc2c(c1=O)CN(C(=O)c1ccc(Cl)cc1)CC2`, for which the inhibition result in the assay on Rattus norvegicus [1] and in the assay with Rattus norvegicus [2] was “Active” throughout.

As for `COn1c(N[C@@H](C)c2ccc(C(F)(F)F)cc2)nc2c(c1=O)CN(C(=O)c1ccc(C#N)cc1F)CC2`, the inhibition result in the assay with Rattus norvegicus [1] and with Rattus norvegicus [2] was “Active” in each case.

As to `COn1c(N[C@@H](C)c2ccc(Cl)cc2)nc2c(c1=O)CN(C(=O)c1ccc(Cl)cc1)CC2`, the inhibition result in the assay on Rattus norvegicus [1] and in the assay with Rattus norvegicus [2] was “Active” each time.

For the compound `C#CCCn1c(N[C@@H](C)c2ccc(C(F)(F)F)cc2)nc2c(c1=O)CN(C(=O)c1ccc(C(=O)N(C)C)cc1)CC2`, the inhibition result with Rattus norvegicus [1] and in the assay with Rattus norvegicus [2] was “Active” each time.

Take `C[C@H](Nc1nc2c(c(=O)n1N(C)C)CN(C(=O)c1ccc(Cl)cc1)CC2)c1ccc(C(F)(F)F)cc1`: the inhibition result in the assay on Rattus norvegicus [1] and in the assay on Rattus norvegicus [2] was “Active” each time.

Consider `C[C@H](Nc1nc2c(c(=O)n1N(C)C)CN(C(=O)c1ccc(C#N)cc1F)CC2)c1ccc(C(F)(F)F)cc1`, for which the inhibition entry in the assay with Rattus norvegicus [1] and in the assay with Rattus norvegicus [2] was “Active” throughout.

For `C[C@H](Nc1nc2c(c(=O)n1N(C)C)CN(C(=O)COc1ccc(Cl)cc1)CC2)c1ccc(C(F)(F)F)cc1`, the inhibition result in the assay with Rattus norvegicus [1] and in the assay with Rattus norvegicus [2] was “Active” throughout.

In the case of `C[C@H](Nc1nc2c(c(=O)n1N(C)C)CN(C(=O)c1ccc(Cl)cc1)CC2)c1ccc(Cl)cc1`, the inhibition entry in the assay on Rattus norvegicus [1] and in the assay on Rattus norvegicus [2] was “Active” throughout.

On to `CC#CCn1c(N[C@@H](C)c2ccc(C(F)(F)F)cc2)nc2c(c1=O)CN(C(=O)c1cnc3ccccc3c1)CC2`, for which the inhibition entry in the assay on Rattus norvegicus [1] and in the assay on Rattus norvegicus [2] was “Active” throughout.

For the compound `C#CCCn1c(N[C@@H](C)c2ccc(C(F)(F)F)cc2)nc2c(c1=O)CN(C(=O)c1ccc(C)cc1)CC2`, the inhibition entry in the assay on Rattus norvegicus [1] and in the assay on Rattus norvegicus [2] was “Active” in each case.

Consider `COn1c(N2CCCC2c2ccc(C(F)(F)F)cc2)nc2c(c1=O)CN(C(=O)c1ccc(Cl)cc1)CC2` (configuration not stated), for which the inhibition entry in the assay on Rattus norvegicus [1] and with Rattus norvegicus [2] was “Active” each time.

Consider `CC#CCn1c(N[C@@H](C)c2ccc(C(F)(F)F)cc2)nc2c(c1=O)CN(C(=O)c1cc3ccccn3n1)CC2`, for which the inhibition entry in the assay on Rattus norvegicus [1] and in the assay with Rattus norvegicus [2] was “Active” in each case.

In the case of `CCC(Nc1nc2c(c(=O)n1OC)CN(C(=O)c1ccc(Cl)cc1)CC2)c1ccc(Cl)cc1` (configuration not stated), the inhibition entry with Rattus norvegicus [1] and in the assay on Rattus norvegicus [2] was “Active” throughout.

`CC#CCn1c(N[C@@H](C)c2ccc(C(F)(F)F)cc2)nc2c(c1=O)CN(C(=O)c1ccc(C#N)cc1)CC2`: the inhibition result with Rattus norvegicus [1] and in the assay with Rattus norvegicus [2] was “Active” throughout.

Take `C#CCn1c(N[C@@H](C)c2ccc(C(F)(F)F)cc2)nc2c(c1=O)CN(C(=O)c1c(F)cccc1F)CC2`: the inhibition entry in the assay on Rattus norvegicus [1] and in the assay on Rattus norvegicus [2] was “Active” in each case.

As for `C#CCCn1c(N[C@@H](C)c2ccc(C(F)(F)F)cc2)nc2c(c1=O)CN(C(=O)c1ccc(C#N)cc1)CC2`, the inhibition entry in the assay with Rattus norvegicus [1] and in the assay on Rattus norvegicus [2] was “Active” throughout.

As for `CC#CCn1c(N[C@@H](C)c2ccc(C(F)(F)F)cc2)nc2c(c1=O)CN(C(=O)c1ccc(OC)cc1)CC2`, the inhibition entry in the assay on Rattus norvegicus [1] and in the assay on Rattus norvegicus [2] was “Active” in each case.
